Source: US20240302368A1, “MIGRATION OF HUMAN PERIPHERAL LEUKOCYTES IN RESPONSE TO CHEMOTACTIC FACTORS DURING PREGNACY” (The Governors of the University of Alberta, priority 2021, published 2024)
“Also recorded” adds a separate entry of the source.

T1: IL-1 receptor (IL-1R) (Mus musculus, UniProt P13504)
T1 construct: host or cells: pregnant mice, in vivo
T1 sequence (P13504 20-576): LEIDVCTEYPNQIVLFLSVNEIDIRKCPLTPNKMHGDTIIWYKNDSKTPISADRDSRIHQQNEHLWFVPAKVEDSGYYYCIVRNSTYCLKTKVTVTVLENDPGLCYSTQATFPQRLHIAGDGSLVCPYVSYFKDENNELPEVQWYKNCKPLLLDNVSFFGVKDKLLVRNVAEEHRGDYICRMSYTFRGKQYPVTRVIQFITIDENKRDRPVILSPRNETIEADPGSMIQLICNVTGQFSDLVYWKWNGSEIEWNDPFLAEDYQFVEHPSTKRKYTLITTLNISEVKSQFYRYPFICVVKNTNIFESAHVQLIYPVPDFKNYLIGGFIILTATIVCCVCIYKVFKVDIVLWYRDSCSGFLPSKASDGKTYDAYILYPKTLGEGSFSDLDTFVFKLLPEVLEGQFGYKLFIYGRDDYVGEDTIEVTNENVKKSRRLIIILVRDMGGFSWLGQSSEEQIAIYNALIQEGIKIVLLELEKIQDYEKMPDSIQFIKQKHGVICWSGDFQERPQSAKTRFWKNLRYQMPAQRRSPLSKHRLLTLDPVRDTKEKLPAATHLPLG

T2: IL-1 receptor (Mus musculus, UniProt P13504)
T2 construct: host or cells: pregnant mice, in vivo
T2 sequence (P13504 20-576): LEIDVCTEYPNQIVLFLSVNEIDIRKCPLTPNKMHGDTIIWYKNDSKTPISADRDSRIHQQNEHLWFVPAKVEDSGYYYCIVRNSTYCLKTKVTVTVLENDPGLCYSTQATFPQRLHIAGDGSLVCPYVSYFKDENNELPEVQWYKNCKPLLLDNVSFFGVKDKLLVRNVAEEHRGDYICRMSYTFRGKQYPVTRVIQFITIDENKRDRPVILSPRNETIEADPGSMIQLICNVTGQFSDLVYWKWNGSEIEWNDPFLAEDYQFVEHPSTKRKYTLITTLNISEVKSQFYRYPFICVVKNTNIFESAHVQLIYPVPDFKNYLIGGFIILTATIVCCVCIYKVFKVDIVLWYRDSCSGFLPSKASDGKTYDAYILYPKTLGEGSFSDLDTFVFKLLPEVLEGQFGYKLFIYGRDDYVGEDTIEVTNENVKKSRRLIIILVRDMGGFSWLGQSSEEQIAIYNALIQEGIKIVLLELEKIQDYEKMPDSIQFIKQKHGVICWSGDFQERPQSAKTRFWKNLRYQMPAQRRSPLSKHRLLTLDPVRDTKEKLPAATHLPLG


Experiments:
CD-1 mice [1] = assay: IL-1β-induced preterm birth (PTB) and fetal death in pregnant mice; type: in vivo, mouse; details: for fetal death: IL-1β on GD 16 without or with rytvela, fetuses at GD 17
Source text: (§1) CD-1 mice were ordered from Charles-River Laboratories Canada (Montreal, QC, Canada) and housed by Health Sciences Laboratory Animal Services at the University of Alberta. (Edmonton, AB, Canada) on a standard diet. Six groups of mice were euthanized at GD15, 17, 18, 18.5, 19 during spontaneous labor, and post-partum (PP)-1 Four groups of mice were anesthetized under isoflurane and a 1.5 cm-tall median incision was made in the lower abdominal wall. The lower segment of the right uterine hom was exposed, IL-1β (3 μg) or vehicle (0.9% saline) was injected between two fetal membranes, and the abdominal muscle layer and skin were sutured. Rytvela (1 mgikg, Elim Biopharmaceuticals, Hayward, CA) or vehicle (0.9% saline) was injected i.p. in a total volume of 100 μL saline, the first dose of which was given 30 min prior to administration of stimuli and three doses every 12 h thereafter. Animals were monitored for the onset of preterm labor (PTL) using infrared video camera recording commencing at GD16.5. Mice were euthanized at the onset of PTL or at GD17 From all ten groups of mice, lower uteri, upper uteri, placentas, fetal membranes and cervices were collected and normalized to wet tissue weight (100 mg/mL) in Dulbecco's Modified Eagle's Medium (DMEM) F-12 (Thermo Fisher Scientific, MA, USA). These tissues were homogenized by TissueLyser II (QIAGEN, Hilden, Germany) according to the manufacturer's protocol and centrifuged at 4° C., 13,000×g for 10 min to extract total protein. Maternal whole blood was collected via cardiac puncture. Whole fetuses (n=2 per dam) were also collected.

[2] = mouse; cited from earlier work
IL-1 receptor (IL-1R) = molecular target: T1, IL-1 receptor (IL-1R); details: PTB induced by IL-1β, LTA or LPS; cited from earlier work
IL-1 receptor = molecular target: T2, IL-1 receptor; details: LPS-treated mice; cited from earlier work
[3] = system: peripheral mouse leukocytes; assay: Cytokine mRNA abundance in peripheral leukocytes of pregnant mice, RT-qPCR; type: in vivo; details: GD 17 after IL-1β on GD 16, without or with rytvela; p<0.05
Source text: (§2) CD-1 mice were ordered from Charles-River Laboratories Canada (Montreal, QC, Canada) and housed by Health Sciences Laboratory Animal Services at the University of Alberta. (Edmonton, AB, Canada) on a standard diet. Six groups of mice were euthanized at GD15, 17, 18, 18.5, 19 during spontaneous labor, and post-partum (PP)-1 Four groups of mice were anesthetized under isoflurane and a 1.5 cm-tall median incision was made in the lower abdominal wall. The lower segment of the right uterine hom was exposed, IL-1β (3 μg) or vehicle (0.9% saline) was injected between two fetal membranes, and the abdominal muscle layer and skin were sutured. […] Animals were monitored for the onset of preterm labor (PTL) using infrared video camera recording commencing at GD16.5. […]
Total RNA was extracted from mouse whole blood using the RNeasy protect animal blood system (Qiagen, Hilden, Germany) according to the manufacturer's protocol. RNA concentration were determined using a NanoDrop 1000 spectrophotometer to measure the optical density (OD) photometrically at 280 nm and 260 nm (an OD260 nm/280 nm ratio of >1.8 was considered protein-free RNA). cDNA was synthesized from 500 ng RNA using qScript cDNA SuperMix (Quanta Biosciences, MA, USA) according to the manufacturer's protocol. […]

mouse leukocytes = assay: Mouse leukocyte migration assay (mLMA) with GD 18.5 lower uterus chemoattractant; type: in vivo; details: GD 17 after IL-1β on GD 16, without or with rytvela, p<0.05
Source text: (§3) CD-1 mice were ordered from Charles-River Laboratories Canada (Montreal, QC, Canada) and housed by Health Sciences Laboratory Animal Services at the University of Alberta. (Edmonton, AB, Canada) on a standard diet. Six groups of mice were euthanized at GD15, 17, 18, 18.5, 19 during spontaneous labor, and post-partum (PP)-1 Four groups of mice were anesthetized under isoflurane and a 1.5 cm-tall median incision was made in the lower abdominal wall. The lower segment of the right uterine hom was exposed, IL-1β (3 μg) or vehicle (0.9% saline) was injected between two fetal membranes, and the abdominal muscle layer and skin were sutured. Rytvela (1 mgikg, Elim Biopharmaceuticals, Hayward, CA) or vehicle (0.9% saline) was injected i.p. in a total volume of 100 μL saline, the first dose of which was given 30 min prior to administration of stimuli and three doses every 12 h thereafter. Animals were monitored for the onset of preterm labor (PTL) using infrared video camera recording commencing at GD16.5. […]
Total leukocytes were isolated from whole blood using HetaSep (Stemcell Technologies Canada Inc., BC. Canada) according to the manufacturer's protocol. […] Fluorescence in each well was measured using a Fluoroskan Ascent (Thermo Fisher Scientific), and the number of chemoattracted leukocytes was calculated using 4 parameter logistic regression.

CD-1 mice [4] = assay: Neutrophil (Ly-6G+) invasion of mouse lower uterus and fetal brain, immunohistochemistry; type: in vivo; details: IL-1β on GD 16 without or with rytvela; compared to sham control; p<0.05
Source text: as §1
Six cryosections (7 μm) per treatment group were prepared from snap-frozen lower uteri and fetal heads (n=2 per dam) and stained for neutrophils using a goat anti-mouse Ly-6G antibody (Invitrogen, Carlsbad, CA, USA) and a rat anti-goat secondary antibody tagged with an Alexa Fluor 488 fluorescence marker (Invitrogen). Cells were counterstained using Hoechst 33342 (Thermo Fisher Scientific) and tissue homology was confirmed with a hematoxylin and eosin stain (Thermo Fisher Scientific). Four different fields (20× optical zoom) were counted per section by two observers blinded to the specimen details. Areas containing blood vessels and leukocytes within blood vessels were excluded. The arithmetic mean was calculated for each sample between the two observers. In the fetus, we focused on leukocyte invasion of the brain because of the evidence associating maternal inflammation and adverse outcomes to the fetal brain (15, 28).

mouse lower uterus [5] = assay: KC and MIP-2 protein in mouse lower uterus extracts, multiplex; type: in vivo; details: IL-1β on GD 16, lower uterus at GD 17
Source text: as §2
Mouse lower uterus tissue was suspended in DMEM-F12 medium (Thermo Fisher Scientific Inc., Ottawa, ON, Canada) at 100 mg wet tissue weight/mL and homogenized by TissueLyser II (Qiagen, Hilden, Germany) according to the manufacturer's instructions. […] Keratinocyte chemoattractant (KC) and macrophage inflammatory protein (MIP)-2 levels were measured by Bio-Plex Multiplex Immunoassay kit (Bio-Rad Laboratories, Hercules, CA, USA) according to the manufacturer's instructions.

TL leukocytes = TL leukocytes incubated with hFM conditioned medium -/+ IL-1β; double conditioned medium as chemoattractant in LMA; type: cell-based, human; details: TL leukocytes treated with IL-1β plus hFM explant conditioned medium; fresh TL leukocytes migrate
Method: Leukocyte migration assay (LMA). The LMA for FIGS. 6 and 7 was performed as described above with the exception that 200,000 leukocytes were placed into the upper chamber. The LMA for FIGS. 3, 5 and FIG. 10 was performed using non-commercial, 3D printed Boyden chambers that produced nearly identical results to our published work with commercial Boyden chambers with the exception that the cutoff for predicting delivery within 7 days was 4575 cells (see FIG. 10 for more information).
Leukocyte Incubation with hFM Conditioned Medium. Conditioned medium from hFM explants was prepared as described previously (23). TL leukocytes were incubated with this single conditioned medium for 1 h at 37° C. and gentle agitation using a stir bar to prevent clumping. The supernatant was isolated via density centrifugation and used as the chemoattractant in an LMA to assess the further contribution of the leukocytes to the conditioned medium. This is referred to as ‘double conditioned medium.’ The pelleted TL leukocytes were resuspended in RPMI, and their responsiveness to GCF was assessed using an LMA.

hFM explants = hFM explants treated with IL-1β; conditioned medium tested in LMA; type: cell-based, human
Method: Leukocyte migration assay (LMA). The LMA was carried out with the Modified Boyden chemotaxis chambers (AP48; Neuro Probe, Gaithersburg, MD, USA) as we published (19). The chamber is divided into the upper and lower berths. Twenty-five microliters of fetal membrane extracts were placed in the lower chamber of each well. DMEM, as a negative control, was placed in the lower chamber. A polycarbonate membrane with 3 μm pores (Neuro Probe, Gaithersburg. MD, USA) was next placed over the lower chamber, followed by a rubber gasket. Then 100,000 isolated leukocytes from whole blood of pregnant women were placed in the upper chamber of each well. The chambers were incubated for 90 min at 37′C in a humidified air incubator containing 5% CO2. After incubation, migrated leukocytes were removed from the lower chamber and put into 5 mL BD Falcon™ polystyrene round bottom tubes (Thermo Fischer Scientific K.K., Yokohama, Japan). Three hundred microliters of OptiLyse (Beckman Coulter, Beckman Coulter, Inc., Brea, CA, USA) were added to lyse RBCs, and the sample was vortexed immediately for 1 sec. The tube was incubated for 15 min at room temperature (20-25° C.) while protected from light. […] 1×PBS was added to each tube. […] The lower chamber samples were then kept covered in a 4′C cold room until quantification using flow cytometry (BD FACS Verse, BD Biosciences, Tokyo, Japan). […]

mouse lower uterus [6] = assay: Mouse lower uterine chemoattractant assessed by leukocyte migration assay (LMA); type: in vivo; details: IL-1β on GD 16, chemoattractant on GD 17
Source text: as §3
Total leukocytes were isolated from whole blood using HetaSep (Stemcell Technologies Canada Inc., BC. Canada) according to the manufacturer's protocol. […] Fluorescence in each well was measured using a Fluoroskan Ascent (Thermo Fisher Scientific), and the number of chemoattracted leukocytes was calculated using 4 parameter logistic regression. […]

| Molecule | PTB (in words) (CD-1 mice [1]; FIG. 11A, n=5-7 per group) | fetal death (CD-1 mice [1]) | fetal death (CD-1 mice [1]; listed as Rytvela) | PTB rate (CD-1 mice [1]; rytvela co-administered with IL-1β (GD 16)) | transfer from mother to fetus [2] | PTB (IL-1 receptor (IL-1R)) | neutrophil infiltration (invasion) of fetal membranes (IL-1 receptor) | leukocyte mRNA abundance of IL-1β, IL-6, TNF-α and CCL2 [3] | mouse leukocyte migration (mouse leukocytes) | neutrophil density in fetal brain (CD-1 mice [4]) | neutrophil density in lower (maternal) uterus (CD-1 mice [4]) | PTB rate (CD-1 mice [1]; IL-1β administered on GD 16, PTB on GD 17) | KC protein in lower uterus (mouse lower uterus [5]) | MIP-2 protein in lower uterus (mouse lower uterus [5]) | leukocyte chemoattractant release (TL leukocytes) | chemoattractant release from hFM explants (hFM explants; TNL and TL hFM explants -/+ IL-1β, TL leukocytes in LMA) | TNL leukocyte sensitivity to migration after hFM explant conditioned medium (hFM explants; hFM explants pretreated with IL-1β 6 h, TNL leukocytes incubated 1 h, TL chemoattractant) | lower uterine chemoattractant (mouse lower uterus [6]) |
| --- | --- | --- | --- | --- | --- | --- | --- | --- | --- | --- | --- | --- | --- | --- | --- | --- | --- | --- |
| rytvela | inhibited | normal GD 17 fetuses | prevented fetal death | 0% | does not transfer from mother to fetus | blocked | blocked | blocked | blocked | blocked the increase in neutrophil density | blocked the increase in neutrophil density | – | – | – | – | – | – | – |
| IL-1β: Interleukin (IL)-1β, mediator of infectious and sterile-inflammatory preterm birth; used to induce PTB in mice (protein, UniProt P10749 118-269, looked up) Interleukin-1 beta: VPIRQLHYRLRDEQQKSLVLSDPYELKALHLNGQNINQQVIFSMSFVQGEPSNDKIPVALGLKGKNLYLSCVMKDGTPTLQLESVDPKQYPKKKMEKRFVFNKIEVKSKVEFESAEFPNWYISTSQAEHKPVFLGNNSGQDIIDFTMESVSS | – | increased fetal death; also recorded: undergoing resorption | – | – | – | – | – | – | increased leukocyte migration | increased detection of Ly-6G+ neutrophils | increased detection of Ly-6G+ neutrophils | 86% | stimulated increases | stimulated increases | greater leukocyte chemoattractant release | did not promote more chemoattractant release | had no effect | did not stimulate an increase |
